From patent US20100068181A1, “PYRROLO [3, 2-A] PYRIDINE DERIVATIVES FOR INHIBITING KSP KINESIN ACTIVITY” (Schering Corporation, priority 2006, published 2010)
Where two headings read alike, the source gives them in different places.

Target: T1, KSP (Homo sapiens, UniProt P52732)
T1 sequence (P52732 1-1056): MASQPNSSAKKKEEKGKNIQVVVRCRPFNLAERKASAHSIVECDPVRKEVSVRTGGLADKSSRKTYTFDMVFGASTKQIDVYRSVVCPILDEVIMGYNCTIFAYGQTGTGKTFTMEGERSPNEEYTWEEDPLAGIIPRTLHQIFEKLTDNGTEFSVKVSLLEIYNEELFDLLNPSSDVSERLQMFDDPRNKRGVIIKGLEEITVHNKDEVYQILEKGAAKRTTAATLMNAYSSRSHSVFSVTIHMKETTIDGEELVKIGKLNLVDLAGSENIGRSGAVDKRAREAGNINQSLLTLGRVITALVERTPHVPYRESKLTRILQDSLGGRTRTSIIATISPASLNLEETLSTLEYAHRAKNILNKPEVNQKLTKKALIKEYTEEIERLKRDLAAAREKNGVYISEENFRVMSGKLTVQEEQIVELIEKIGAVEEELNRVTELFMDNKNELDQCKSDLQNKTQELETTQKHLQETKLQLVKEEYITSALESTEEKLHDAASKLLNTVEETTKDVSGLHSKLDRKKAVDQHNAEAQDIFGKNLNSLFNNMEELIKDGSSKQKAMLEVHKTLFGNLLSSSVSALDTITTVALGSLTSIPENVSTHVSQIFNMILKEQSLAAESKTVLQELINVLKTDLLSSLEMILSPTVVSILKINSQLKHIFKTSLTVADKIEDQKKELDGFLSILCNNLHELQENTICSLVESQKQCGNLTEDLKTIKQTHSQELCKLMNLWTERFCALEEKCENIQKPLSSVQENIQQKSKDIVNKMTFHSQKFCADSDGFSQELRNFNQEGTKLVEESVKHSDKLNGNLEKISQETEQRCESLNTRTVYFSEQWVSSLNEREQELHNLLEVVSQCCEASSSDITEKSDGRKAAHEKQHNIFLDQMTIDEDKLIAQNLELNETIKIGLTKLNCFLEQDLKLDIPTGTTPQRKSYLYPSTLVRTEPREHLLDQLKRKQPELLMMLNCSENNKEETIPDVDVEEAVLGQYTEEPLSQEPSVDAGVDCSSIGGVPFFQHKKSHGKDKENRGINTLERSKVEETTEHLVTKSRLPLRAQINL
Experiment: KSP inhibitory activity, end-point assay
Type: biochemical
Description: The inhibitory activity of the present compounds towards KSP may be assayed by methods known in the art, for example, by using the methods as described in the examples.

[1] = KSP inhibitory activity based on end-point assay, read-out: IC50 Rating
[2] = numerical IC50 values for representative compounds, read-out: IC50

| Compound | IC50 [1] [nM] | IC50 [2] [nM] |
| --- | --- | --- |
| CC(C)(C)[C@@H]1CCc2nc3cc(C(N)=O)[nH]c3cc2C1 (single isomer, unassigned) [Example 21A] | < 100 | 30 |
| CC(C)(C)C1CCc2nc3cc(C(N)=O)[nH]c3cc2C1 (stereo not shown) [Example 2] | < 100 | 30 |
| CNC(=O)c1cc2nc3c(cc2[nH]1)CC(C(C)(C)C)CC3 (stereo not shown) [Example 3] | < 100 | 50 |
| CCNC(=O)c1cc2nc3c(cc2[nH]1)CC(C(C)(C)C)CC3 (stereo not shown) [Example 4] | 100 to 1000 | – |
| CC(C)(C)C1CCc2nc3cc(C(=O)NCCCCN)[nH]c3cc2C1 (stereo not shown) [Example 5] | 100 to 1000 | – |
| CC(C)(C)C1CCc2nc3cc(C(=O)NCCN)[nH]c3cc2C1 (stereo not shown) [Example 6] | 100 to 1000 | – |
| CC(C)(C)C1CCc2nc3cc(C(=O)NCCCN)[nH]c3cc2C1 (stereo not shown) [Example 8] | 1000 to 10000 | – |
| CC(C)(C)C1CCc2nc3cc(C(=O)NCCCCCN)[nH]c3cc2C1 (stereo not shown) [Example 10] | 100 to 1000 | – |
| CC(C)(C)C1CCc2nc3cc(C(=O)NCCCCCO)[nH]c3cc2C1 (stereo not shown) [Example 11] | 1000 to 10000 | – |
| CC(C)(C)C1CCc2nc3cc(C(=O)NN)[nH]c3cc2C1 (stereo not shown) [Example 17] | < 100 | – |
| CC(C)(C)C1CCc2nc3cc(C(=O)NCc4ccccc4)[nH]c3cc2C1 (stereo not shown) [Example 18] | > 10000 | – |
| CC(C)(C)C1CCc2nc3c([N+](=O)[O-])c(C(N)=O)[nH]c3cc2C1 (stereo not shown) [Example 26] | > 10000 | – |
| C=Cc1cc2nc3c(cc2[nH]1)CC(C(C)(C)C)CC3 (stereo not shown) [Example 28] | 1000 to 10000 | – |
| CC(O)c1cc2nc3c(cc2[nH]1)CC(C(C)(C)C)CC3 (stereo not shown) [Example 29] | 100 to 1000 | – |
| CC(=O)c1cc2nc3c(cc2[nH]1)CC(C(C)(C)C)CC3 (stereo not shown) [Example 30] | 100 to 1000 | – |
| CC(=NO)c1cc2nc3c(cc2[nH]1)CC(C(C)(C)C)CC3 (stereo not shown) [Example 31] | > 10000 | – |
| CC(C)(C)C1CCc2nc3cc(COC(=O)c4ccccc4)[nH]c3cc2C1 (stereo not shown) [Example 32] | > 10000 | – |
| CC(C)(C)C1CCc2nc3cc(CC#N)[nH]c3cc2C1 (stereo not shown) [Example 33] | 1000 to 10000 | – |
| CCOC(=O)c1[nH]c2cc3c(nc2c1Br)CCC(C(C)(C)C)C3 (stereo not shown) [Example 34] | > 10000 | – |

Other lines, results leading:

| IC50 [1] [nM] | IC50 [2] [nM] | Compound |
| --- | --- | --- |
| 100 to 1000 | – | CC(C)(C)[C@H]1CCc2nc3cc(C(N)=O)[nH]c3cc2C1 (single isomer, unassigned) [Example 21B] |
| < 100 | 20 | CNC(=O)c1cc2nc3c(cc2[nH]1)C[C@H](C(C)(C)C)CC3 (single isomer, unassigned) [Example 22A] |
| 100 to 1000 | – | CNC(=O)c1cc2nc3c(cc2[nH]1)C[C@@H](C(C)(C)C)CC3 (single isomer, unassigned) [Example 22B] |
| 1000 to 10000 | – | CCOC(=O)c1cc2nc3c(cc2[nH]1)CC(C(C)(C)C)CC3 (stereo not shown) [Example 1] |
| 100 to 1000 | – | CC(C)(C)C1CCc2nc3cc(C(=O)NCCO)[nH]c3cc2C1 (stereo not shown) [Example 7] |
| 100 to 1000 | – | CC(C)(C)C1CCc2nc3cc(C(=O)NCCCO)[nH]c3cc2C1 (stereo not shown) [Example 9] |
| > 10000 | – | CC(C)(C)C1CCc2nc3cc(C(=O)NCCCCCCO)[nH]c3cc2C1 (stereo not shown) [Example 12] |
| 1000 to 10000 | – | CC(C)(C)C1CCc2nc3cc(C(=O)NCCCCO)[nH]c3cc2C1 (stereo not shown) [Example 13] |
| 100 to 1000 | – | CC(C)(C)C1CCc2nc3cc(C(=O)NCCCCCCN)[nH]c3cc2C1 (stereo not shown) [Example 14] |
| > 10000 | – | CC(C)(C)C1CCc2nc3cc(C(=O)NCCc4ccc(O)cc4)[nH]c3cc2C1 (stereo not shown) [Example 15] |
| > 10000 | – | CN1CCN(C(=O)c2cc3nc4c(cc3[nH]2)CC(C(C)(C)C)CC4)CC1 (stereo not shown) [Example 16] |
| > 10000 | – | CC(C)(C)C1CCc2nc3cc(C(=O)NCc4cccnc4)[nH]c3cc2C1 (stereo not shown) [Example 19] |
| 1000 to 10000 | – | C[C@@H](CO)NC(=O)c1cc2nc3c(cc2[nH]1)CC(C(C)(C)C)CC3 (stereo partly shown) [Example 20] |
| < 100 | 40 | CC(C)(C)C1CCc2nc3cc(CO)[nH]c3cc2C1 (stereo not shown) [Example 23] |
| 100 to 1000 | – | CC(C)(C)C1CCc2nc3cc(CN)[nH]c3cc2C1 (stereo not shown) [Example 25] |
| 100 to 1000 | – | CC(C)(C)C1CCc2nc3c(N)c(C(N)=O)[nH]c3cc2C1 (stereo not shown) [Example 27] |
